The nature of the data set: Bioassay: distribution of I-123-labeled compounds in organs of rats after tail vein injection (percent dose/gram, brain/blood ratio). The data set is classed as in vivo, Female Sprague-Dawley rats. The conditions noted are these: for Brain/Blood Ratio 5 min. / tissue uptake at 5 min: 5 minutes post-injection; for Brain/Blood Ratio 60 min. / tissue uptake at 1 h: 60 minutes post-injection; for tissue uptake at 5 min / tissue uptake at 1 h: rat, iv, 0.05 to 1.0 mCi, two rats. Here is the method:
Female Sprague-Dawley rats weighing approximately 150 g were anesthetized with sodium pentobarbital and were injected in a tail vein with from 0.05 to 1.0 mCi (in a volume of 0.2 to 0.5 ml) of the I-123-labeled compound. Two specimens were utilized for each test.
Two animals each were sacrificed at 5 minutes and 60 minutes post-injection, the tails discarded and the amount of activity in various organs determined. Each organ was counted at a standardized geometry with a sodium iodide crystal scintillation counter adjusted for the 159 keV emission of I-123. The organs were also weighed to one thousandth of a gram and the activity calculated as a percent of administered dose per gram of organ weight.
The ratio of brain-to-blood activity was calculated as a percent of administered dose per gram.

Where [1] appears, read: blood, read-out: Percent Dose/Gram Blood 5 min.
Setting [2] is: blood, read-out: Percent Dose/Gram Blood 60 min.
Where [3] appears, read: brain, read-out: Percent Dose/Gram Brain 5 min.
[4] abbreviates: brain, read-out: Percent Dose/Gram Brain 60 min.
Setting [5] is: heart, read-out: Percent Dose/Gram Heart 5 min.
Where [6] appears, read: heart, read-out: Percent Dose/Gram Heart 60 min.

Where two headings read alike, the source gives them in different places.

Consider 16 compounds from patent US4360511A, “Amines useful as brain imaging agents” (Medi-Physics, Inc., priority 1980, dated 1982).

`N#CC(Nc1ccccc1)c1ccccc1[123I]` (stereo not drawn) [I--123-α-anilino-o-iodophenylacetonitrile]: the “Brain/Blood Ratio 5 min.” value turned out to be 4.68 and the “Brain/Blood Ratio 60 min.” value is listed as 1.41. The tissue uptake at 5 min under setting [1] was determined as 0.17 %ID/g. In addition, the tissue uptake at 1 h under setting [2] was 0.1 %ID/g. For the same compound, the tissue uptake at 5 min under setting [3] was 0.8 %ID/g. The tissue uptake at 1 h under setting [4] was 0.14 %ID/g. For the same compound, under setting [5], the tissue uptake at 5 min amounted to 0.9 %ID/g. Further, the tissue uptake at 1 h under setting [6] came to 0.24 %ID/g.

For `CC(C)N(CCc1ccccc1)CCc1ccccc1[123I]` [I--123-N--β-phenethyl-N--isopropyl-o-iodo-β-phenethylamine], the “Brain/Blood Ratio 5 min.” value is recorded as 1.83. For the same compound, under setting [1], the tissue uptake at 5 min was 0.29 %ID/g. Also, the tissue uptake at 5 min under setting [3] was 0.53 %ID/g. For the same compound, the tissue uptake at 5 min under setting [5] was 2.01 %ID/g.

Take `CC(C)N[C@@H](C)Cc1ccc([123I])cc1` [I--123-S--N--isopropyl-p-iodoamphetamine, I-123-S-N-isopropyl-p-iodoamphetamine]: the “Brain/Blood Ratio 5 min.” value stood at 12.80 and the “Brain/Blood Ratio 60 min.” value was 15.40. In addition, the tissue uptake at 5 min under setting [1] was determined as 0.11 %ID/g. The tissue uptake at 1 h under setting [2] is 0.13 %ID/g. Besides, the tissue uptake at 5 min under setting [3] came to 1.32 %ID/g. Further, under setting [4], the tissue uptake at 1 h was 1.93 %ID/g. The tissue uptake at 5 min under setting [5] was 1.28 %ID/g. Under setting [6], the tissue uptake at 1 h is 0.85 %ID/g.

As to `CC(Cc1ccccc1)Nc1ccccc1[123I]` (racemic) [I--123-N--(o-iodophenyl)amphetamine (dl)], the “Brain/Blood Ratio 5 min.” value came to 1.81 and the “Brain/Blood Ratio 60 min.” value was determined as 0.75. The tissue uptake at 5 min under setting [1] came out at 0.53 %ID/g. For the same compound, the tissue uptake at 1 h under setting [2] turned out to be 0.55 %ID/g. Also, under setting [3], the tissue uptake at 5 min was 0.96 %ID/g. Besides, under setting [4], the tissue uptake at 1 h is 0.41 %ID/g. Moreover, the tissue uptake at 5 min under setting [5] was 1.64 %ID/g. In addition, the tissue uptake at 1 h under setting [6] amounted to 0.57 %ID/g.

Turning to `Nc1ccc([123I])cc1` [I--123-p-iodoaniline], the “Brain/Blood Ratio 5 min.” value is 1.12 and the “Brain/Blood Ratio 60 min.” value is reported as 1.00. For the same compound, the tissue uptake at 5 min under setting [1] amounted to 0.97 %ID/g. In addition, the tissue uptake at 1 h under setting [2] was found to be 0.8 %ID/g. Also, the tissue uptake at 5 min under setting [3] came out at 1.09 %ID/g. Also, the tissue uptake at 1 h under setting [4] amounted to 0.8 %ID/g. The tissue uptake at 5 min under setting [5] stood at 1.11 %ID/g. In addition, the tissue uptake at 1 h under setting [6] amounted to 0.8 %ID/g.

With `[123I]c1ccccc1CNc1ccccc1` [I--123-N--o-iodobenzylaniline], the “Brain/Blood Ratio 5 min.” value is 1.70 and the “Brain/Blood Ratio 60 min.” value was 0.41. For the same compound, the tissue uptake at 5 min under setting [1] was 0.61 %ID/g. The tissue uptake at 1 h under setting [2] was found to be 0.41 %ID/g. The tissue uptake at 5 min under setting [3] turned out to be 1.02 %ID/g. Also, the tissue uptake at 1 h under setting [4] was 0.17 %ID/g. Moreover, the tissue uptake at 5 min under setting [5] turned out to be 0.83 %ID/g. For the same compound, the tissue uptake at 1 h under setting [6] was 0.31 %ID/g.

Consider `CC(Cc1ccccc1)NCCc1ccccc1[123I]` (racemic) [I--123-N--o-iodo-β-phenethylamphetamine (dl)], for which the “Brain/Blood Ratio 5 min.” value is 7.13 and the “Brain/Blood Ratio 60 min.” value stood at 7.86. Further, the tissue uptake at 5 min under setting [1] was 0.12 %ID/g. The tissue uptake at 1 h under setting [2] amounted to 0.11 %ID/g. Under setting [3], the tissue uptake at 5 min was determined as 0.82 %ID/g. Besides, the tissue uptake at 1 h under setting [4] is 0.83 %ID/g. For the same compound, under setting [5], the tissue uptake at 5 min stood at 2.02 %ID/g. The tissue uptake at 1 h under setting [6] was 0.48 %ID/g.

Regarding `N#CC(N)c1ccccc1[123I]` (stereo not drawn) [I--123-α-amino-o-iodophenylacetonitrile], the “Brain/Blood Ratio 5 min.” value is on record as 1.74. Besides, the tissue uptake at 5 min under setting [1] stood at 0.34 %ID/g. Besides, under setting [3], the tissue uptake at 5 min is 0.58 %ID/g. The tissue uptake at 5 min under setting [5] was found to be 0.86 %ID/g.

As to `[123I]c1ccccc1CN1CCCCC1` [I--123-N--o-iodobenzylpiperidine], the “Brain/Blood Ratio 5 min.” value came to 1.56 and the “Brain/Blood Ratio 60 min.” value came out at 0.91. Besides, the tissue uptake at 5 min under setting [1] amounted to 0.6 %ID/g. Also, the tissue uptake at 1 h under setting [2] is 0.32 %ID/g. Moreover, under setting [3], the tissue uptake at 5 min was 0.93 %ID/g. Moreover, under setting [4], the tissue uptake at 1 h worked out at 0.29 %ID/g. Under setting [5], the tissue uptake at 5 min came out at 0.56 %ID/g. Further, the tissue uptake at 1 h under setting [6] was 0.38 %ID/g.

On to `CC(C)(C)NCc1ccccc1[123I]` [I--123-N--t-butyl-o-iodobenzylamine, I-123-N-t-butyl-o-iodobenzylamine], for which the “Brain/Blood Ratio 5 min.” value worked out at 8.85 and the “Brain/Blood Ratio 60 min.” value was determined as 8.16. Moreover, the tissue uptake at 5 min under setting [1] was found to be 0.17 %ID/g. Besides, the tissue uptake at 1 h under setting [2] stood at 0.11 %ID/g. Also, under setting [3], the tissue uptake at 5 min worked out at 1.49 %ID/g. The tissue uptake at 1 h under setting [4] came to 0.89 %ID/g. Moreover, under setting [5], the tissue uptake at 5 min amounted to 1.04 %ID/g. The tissue uptake at 1 h under setting [6] is 0.49 %ID/g.

`CCCNCc1ccccc1[123I]` [I--123-N--propyl-o-iodobenzylamine]: the “Brain/Blood Ratio 5 min.” value is reported as 3.81 and the “Brain/Blood Ratio 60 min.” value amounted to 1.84. Moreover, the tissue uptake at 5 min under setting [1] stood at 0.27 %ID/g. For the same compound, under setting [2], the tissue uptake at 1 h is 0.32 %ID/g. Moreover, the tissue uptake at 5 min under setting [3] was determined as 1.03 %ID/g. The tissue uptake at 1 h under setting [4] is 0.59 %ID/g. For the same compound, the tissue uptake at 5 min under setting [5] is 0.77 %ID/g. Besides, the tissue uptake at 1 h under setting [6] was found to be 0.59 %ID/g.

Turning to `Cc1cccc(C)c1NC(=O)CNCCc1ccccc1[123I]` [I--123-N--(2,6-dimethylphenylcarbamoyl)methyl-o-iodo-β-phenethylamine], the “Brain/Blood Ratio 5 min.” value is given as 1.33 and the “Brain/Blood Ratio 60 min.” value is on record as 0.31. The tissue uptake at 5 min under setting [1] amounted to 0.55 %ID/g. Also, the tissue uptake at 1 h under setting [2] was found to be 0.26 %ID/g. The tissue uptake at 5 min under setting [3] is 0.73 %ID/g. Under setting [4], the tissue uptake at 1 h is 0.08 %ID/g. For the same compound, the tissue uptake at 5 min under setting [5] is 0.74 %ID/g. The tissue uptake at 1 h under setting [6] is 0.21 %ID/g.

Consider `NC(=O)C(Nc1ccc([123I])cc1)c1ccccc1` (stereo not drawn) [I--123-α-(p-iodoanilino)phenylacetamide], for which the “Brain/Blood Ratio 5 min.” value came to 1.30. The tissue uptake at 5 min under setting [1] worked out at 0.71 %ID/g. Also, the tissue uptake at 5 min under setting [3] is 0.92 %ID/g. In addition, the tissue uptake at 5 min under setting [5] is 1.42 %ID/g.

For `CC(C)NCCc1ccccc1[123I]` [I--123-N--isopropyl-o-iodo-β-phenethylamine], the “Brain/Blood Ratio 5 min.” value stood at 8.58 and the “Brain/Blood Ratio 60 min.” value was 5.83. Under setting [1], the tissue uptake at 5 min was determined as 0.12 %ID/g. The tissue uptake at 1 h under setting [2] was determined as 0.12 %ID/g. Moreover, the tissue uptake at 5 min under setting [3] stood at 1.03 %ID/g. Further, the tissue uptake at 1 h under setting [4] stood at 0.67 %ID/g. In addition, the tissue uptake at 5 min under setting [5] was 0.88 %ID/g. Moreover, the tissue uptake at 1 h under setting [6] stood at 0.27 %ID/g.

Turning to `[123I]c1ccccc1NCc1ccccc1` [I--123-N--benzyl-o-iodoaniline], the “Brain/Blood Ratio 5 min.” value was 2.23 and the “Brain/Blood Ratio 60 min.” value stood at 0.80. The tissue uptake at 5 min under setting [1] stood at 0.3 %ID/g. Under setting [2], the tissue uptake at 1 h turned out to be 0.36 %ID/g. Further, under setting [3], the tissue uptake at 5 min amounted to 0.67 %ID/g. The tissue uptake at 1 h under setting [4] was determined as 0.29 %ID/g. Also, the tissue uptake at 5 min under setting [5] was found to be 0.34 %ID/g. Besides, the tissue uptake at 1 h under setting [6] turned out to be 1.25 %ID/g.

On to `CNCCc1ccccc1[123I]` [I--123-N--methyl-o-iodo-β-phenethylamine], for which the “Brain/Blood Ratio 5 min.” value is 0.49. Also, the tissue uptake at 5 min under setting [1] amounted to 1.16 %ID/g. Moreover, the tissue uptake at 5 min under setting [3] is 0.57 %ID/g. Also, the tissue uptake at 5 min under setting [5] is 1.07 %ID/g.
